Measurements published in ChEMBL document CHEMBL4673219, “Novel 5,6-disubstituted pyrrolo[2,3-d]pyrimidine derivatives as broad spectrum antiproliferative agents: Synthesis, cell based assays, kinase profile and molecular docking study” (Bioorg Med Chem, 2018).
“And” between values parts separate entries of the source, which are not always exact repeats. Identical values can stand only once.

Tests used:
Assay type in all cases: functional
UO-31 [1] = assay: Growth inhibition of human UO-31 cells assessed as growth percentage at 10 uM incubated for 48 hrs by sulforhodamine B assay relative to control; conditions: read-out: Activity
ACHN = assay: Growth inhibition of human ACHN cells assessed as growth percentage at 10 uM incubated for 48 hrs by sulforhodamine B assay relative to control; conditions: read-out: Activity
A498 = assay: Growth inhibition of human A498 cells assessed as growth percentage at 10 uM incubated for 48 hrs by sulforhodamine B assay relative to control; conditions: read-out: Activity
NCI/ADR-RES = assay: Growth inhibition of human NCI/ADR-RES cells assessed as growth percentage at 10 uM incubated for 48 hrs by sulforhodamine B assay relative to control; conditions: read-out: Activity
MDA-MB-231 = assay: Growth inhibition of human MDA-MB-231/ATCC cells incubated for 48 hrs by sulforhodamine B assay; conditions: for TGI: MDA-MB-231
SK-OV-3 = assay: Growth inhibition of human SK-OV-3 cells incubated for 48 hrs by sulforhodamine B assay; conditions: for GI50: SK-OV-3
OVCAR-3 = assay: Growth inhibition of human OVCAR-3 cells incubated for 48 hrs by sulforhodamine B assay; conditions: for TGI: OVCAR-3; for CC50: OVCAR-3, read-out: LC50 (the source's name)
SK-MEL-5 = assay: Growth inhibition of human SK-MEL-5 cells incubated for 48 hrs by sulforhodamine B assay; conditions: for CC50: read-out: LC50 (the source's name); for GI50 / TGI: SK-MEL-5
SK-MEL-28 = assay: Growth inhibition of human SK-MEL-28 cells incubated for 48 hrs by sulforhodamine B assay
M14 = assay: Growth inhibition of human M14 cells incubated for 48 hrs by sulforhodamine B assay
Malme-3M = assay: Growth inhibition of human Malme-3M cells incubated for 48 hrs by sulforhodamine B assay; conditions: for GI50: 48 h
HCT-116 = assay: Antiproliferative activity against human HCT-116 cells assessed as cell growth inhibition at 10 uM measured after 72 hrs by MTT assay relative to control; conditions: read-out: GI
MCF7 = assay: Antiproliferative activity against human MCF7 cells assessed as cell growth inhibition measured after 72 hrs by MTT assay
LOX IMVI = assay: Growth inhibition of human LOX IMVI cells assessed as growth percentage at 100 uM incubated for 48 hrs by sulforhodamine B assay relative to control; conditions: read-out: Activity
SNB-19 = assay: Growth inhibition of human SNB-19 cells assessed as growth percentage at 100 uM incubated for 48 hrs by sulforhodamine B assay relative to control; conditions: read-out: Activity
SF-268 = assay: Growth inhibition of human SF-268 cells assessed as growth percentage at 100 uM incubated for 48 hrs by sulforhodamine B assay relative to control; conditions: read-out: Activity
HT-29 = assay: Growth inhibition of human HT-29 cells assessed as growth percentage at 100 uM incubated for 48 hrs by sulforhodamine B assay relative to control; conditions: read-out: Activity
HOP-92 = assay: Growth inhibition of human HOP-92 cells assessed as growth percentage at 100 uM incubated for 48 hrs by sulforhodamine B assay relative to control; conditions: read-out: Activity
SR = assay: Growth inhibition of human SR cells assessed as growth percentage at 100 uM incubated for 48 hrs by sulforhodamine B assay relative to control; conditions: read-out: Activity
RPMI-8226 [2] = assay: Growth inhibition of human RPMI-8226 cells assessed as growth percentage at 100 uM incubated for 48 hrs by sulforhodamine B assay relative to control; conditions: read-out: Activity
Hs-578T [3] = assay: Growth inhibition of human Hs-578T cells assessed as growth percentage at 1 uM incubated for 48 hrs by sulforhodamine B assay relative to control; conditions: read-out: Activity
OVCAR-8 = assay: Growth inhibition of human OVCAR-8 cells assessed as growth percentage at 1 uM incubated for 48 hrs by sulforhodamine B assay relative to control; conditions: read-out: Activity
IGROV-1 = assay: Growth inhibition of human IGROV-1 assessed as growth percent at 1 uM incubated for 48 hrs by sulforhodamine B assay relative to control; conditions: read-out: Activity
UACC-257 = assay: Growth inhibition of human UACC-257 cells assessed as growth percentage at 1 uM incubated for 48 hrs by sulforhodamine B assay relative to control; conditions: read-out: Activity
U-251 = assay: Growth inhibition of human U-251 cells assessed as growth percentage at 1 uM incubated for 48 hrs by sulforhodamine B assay relative to control; conditions: read-out: Activity
NCI-H226 [4] = assay: Growth inhibition of human NCI-H226 cells assessed as growth percentage at 1 uM incubated for 48 hrs by sulforhodamine B assay relative to control; conditions: read-out: Activity
UO-31 [5] = assay: Growth inhibition of human UO-31 cells assessed as growth percentage at 0.1 uM incubated for 48 hrs by sulforhodamine B assay relative to control; conditions: read-out: Activity
NCI-H522 = assay: Growth inhibition of human NCI-H522 cells assessed as growth percentage at 0.1 uM incubated for 48 hrs by sulforhodamine B assay relative to control; conditions: read-out: Activity
NCI-H23 = assay: Growth inhibition of human NCI-H23 cells assessed as growth percentage at 0.1 uM incubated for 48 hrs by sulforhodamine B assay relative to control; conditions: read-out: Activity
HOP-62 = assay: Growth inhibition of human HOP-62 cells assessed as growth percentage at 0.1 uM incubated for 48 hrs by sulforhodamine B assay relative to control; conditions: read-out: Activity
Hs-578T [6] = assay: Growth inhibition of human Hs-578T cells assessed as growth percentage at 0.01 uM incubated for 48 hrs by sulforhodamine B assay relative to control; conditions: read-out: Activity
DU-145 = assay: Growth inhibition of human DU-145 cells assessed as growth percentage at 0.01 uM incubated for 48 hrs by sulforhodamine B assay relative to control; conditions: read-out: Activity
TK-10 = assay: Growth inhibition of human TK-10 cells assessed as growth percentage at 0.01 uM incubated for 48 hrs by sulforhodamine B assay relative to control; conditions: read-out: Activity
786-0 = assay: Growth inhibition of human 786-0 cells assessed as growth percentage at 0.01 uM incubated for 48 hrs by sulforhodamine B assay relative to control; conditions: read-out: Activity
NCI-H226 [7] = assay: Growth inhibition of human NCI-H226 cells assessed as growth percentage at 0.01 uM incubated for 48 hrs by sulforhodamine B assay relative to control; conditions: read-out: Activity
MOLT-4 = assay: Growth inhibition of human MOLT-4 cells assessed as growth percentage at 0.01 uM incubated for 48 hrs by sulforhodamine B assay relative to control; conditions: read-out: Activity
RPMI-8226 [8] = assay: Growth inhibition of human RPMI-8226 cells assessed as growth percentage at 0.01 uM incubated for 48 hrs by sulforhodamine B assay relative to control; conditions: read-out: Activity
K562 = assay: Growth inhibition of human K562 cells assessed as growth percentage at 0.01 uM incubated for 48 hrs by sulforhodamine B assay relative to control; conditions: read-out: Activity

Nc1nc2[nH]c(CN3CCN(c4cc(Cl)cc(Cl)c4)CC3)c(CN3CCN(c4cc(Cl)cc(Cl)c4)CC3)c2c(=O)[nH]1
growth at 10 µM (UO-31 [1]): 75.1%
growth at 10 µM (ACHN): 96.8%
growth at 10 µM (A498): 64.4%
growth at 10 µM (NCI/ADR-RES): 87.6%
TGI (MDA-MB-231; Homo sapiens): 3980 nM
GI50 (MDA-MB-231; Homo sapiens, MDA-MB-231, 48 h): 2010 nM
TGI (SK-OV-3; 48 h): 17500 nM and 1750 nM
GI50 (SK-OV-3; Homo sapiens): 4620 nM
TGI (OVCAR-3; Homo sapiens): 3380 nM
GI50 (OVCAR-3; Homo sapiens, OVCAR-3, 48 h): 1810 nM
CC50 (OVCAR-3; Homo sapiens): 6280 nM
CC50 (SK-MEL-5; 48 h): 2890 nM
GI50 (SK-MEL-5; Homo sapiens): 1630 nM
TGI (SK-MEL-5; Homo sapiens): 3070 nM
CC50 (SK-MEL-5; Homo sapiens, SK-MEL-5, 48 h): 5760 nM
GI50 (SK-MEL-28): 1790 nM
TGI (SK-MEL-28): 3620 nM
GI50 (M14; Homo sapiens, M14, 48 h): 1830 nM
TGI (M14; Homo sapiens, M14, 48 h): 3630 nM
TGI (Malme-3M; Homo sapiens, Malme-3M): 3930 nM
GI50 (Malme-3M; Homo sapiens, Malme-3M): 2000 nM
inhibition of growth at 10 µM (HCT-116): 91.7%
GI50 (MCF7): 4020 nM
growth at 100 µM (LOX IMVI): -35%
growth at 100 µM (SNB-19): -16%
growth at 100 µM (SF-268): -59%
growth at 100 µM (HT-29): -70%
growth at 100 µM (HOP-92): -72%
growth at 100 µM (SR): -30%
growth at 100 µM (RPMI-8226 [2]): -19%
growth at 1 µM (Hs-578T [3]): 84%
growth at 1 µM (OVCAR-8): 96%
growth at 1 µM (IGROV-1): 96%
growth at 1 µM (UACC-257): 93%
growth at 1 µM (U-251): 90%
growth at 1 µM (NCI-H226 [4]): 93%
growth at 0.1 µM (UO-31 [5]): 92%
growth at 0.1 µM (NCI-H522): 97%
growth at 0.1 µM (NCI-H23): 107%
growth at 0.1 µM (HOP-62): 99%
growth at 0.01 µM (Hs-578T [6]): 89%
growth at 0.01 µM (DU-145): 110%
growth at 0.01 µM (TK-10): 101%
growth at 0.01 µM (786-0): 94%
growth at 0.01 µM (NCI-H226 [7]): 95%
growth at 0.01 µM (MOLT-4): 100%
growth at 0.01 µM (RPMI-8226 [8]): 102%
growth at 0.01 µM (K562): 108%

CCCCCCCC(=O)Nc1nc2[nH]c(CN3CCN(Cc4cccc(F)c4)CC3)c(CN3CCN(Cc4cccc(F)c4)CC3)c2c(=O)[nH]1
growth at 10 µM (UO-31 [1]): -96.5%
growth at 10 µM (ACHN): -96.6%
growth at 10 µM (A498): 61.6%
growth at 10 µM (NCI/ADR-RES): -66.1%
GI50 (MDA-MB-231; 48 h): 590 nM
TGI (MDA-MB-231; Homo sapiens): 1960 nM
GI50 (MDA-MB-231; Homo sapiens, MDA-MB-231, 48 h): 587 nM
CC50 (MDA-MB-231; Homo sapiens, MDA-MB-231, read-out: LC50 (the source's name)): 5380 nM
GI50 (SK-OV-3; Homo sapiens): 1900 nM
LC50 (SK-OV-3; Homo sapiens, SK-OV-3, 48 h): 5860 nM
TGI (SK-OV-3; Homo sapiens, SK-OV-3, 48 h): 3330 nM
GI50 (OVCAR-3; 48 h): 780 nM
TGI (OVCAR-3; Homo sapiens): 2170 nM
GI50 (OVCAR-3; Homo sapiens, OVCAR-3, 48 h): 781 nM
CC50 (OVCAR-3; Homo sapiens): 5280 nM
GI50 (SK-MEL-5; Homo sapiens): 1570 nM
TGI (SK-MEL-5; Homo sapiens): 3030 nM
CC50 (SK-MEL-5; Homo sapiens, SK-MEL-5, 48 h): 5870 nM
GI50 (SK-MEL-28): 1790 nM
TGI (SK-MEL-28): 3620 nM
GI50 (M14; 48 h): 210 nM
TGI (M14; 48 h): 470 nM
LC50 (50% lethal concentration) (M14; Homo sapiens, M14): 1240 nM
GI50 (M14; Homo sapiens, M14, 48 h): 205 nM
TGI (M14; Homo sapiens, M14, 48 h): 466 nM
GI50 (Malme-3M): 670 nM
TGI (Malme-3M; Homo sapiens, Malme-3M): 2240 nM
GI50 (Malme-3M; Homo sapiens, Malme-3M): 672 nM
CC50 (Malme-3M; Homo sapiens, Malme-3M, read-out: LC50 (the source's name)): 6110 nM
inhibition of growth at 10 µM (HCT-116): 95.5%
GI50 (MCF7): 2150 nM
growth at 100 µM (LOX IMVI): -75%
growth at 100 µM (SNB-19): -83%
growth at 100 µM (SF-268): -77%
growth at 100 µM (HT-29): -68%
growth at 100 µM (HOP-92): -95%
growth at 100 µM (SR): -12%
growth at 100 µM (RPMI-8226 [2]): 1%
growth at 1 µM (Hs-578T [3]): 61%
growth at 1 µM (OVCAR-8): -66%
growth at 1 µM (IGROV-1): 72%
growth at 1 µM (UACC-257): -48%
growth at 1 µM (U-251): -88%
growth at 1 µM (NCI-H226 [4]): 91%
growth at 0.1 µM (UO-31 [5]): 84%
growth at 0.1 µM (NCI-H522): 94%
growth at 0.1 µM (NCI-H23): 100%
growth at 0.1 µM (HOP-62): 95%
growth at 0.01 µM (Hs-578T [6]): 97%
growth at 0.01 µM (DU-145): 100%
growth at 0.01 µM (TK-10): 91%
growth at 0.01 µM (786-0): 98%
growth at 0.01 µM (NCI-H226 [7]): 94%
growth at 0.01 µM (MOLT-4): 95%
growth at 0.01 µM (RPMI-8226 [8]): 101%
growth at 0.01 µM (K562): 102%
